Results published in paper PMC10517971, “An inverse agonist of orphan receptor GPR61 acts by a G protein-competitive allosteric mechanism” (Nature Communications, 2023).
Several values for one entry are separate records, joined by “and”; a condition that tells them apart may be missing. Equal entries are not always repeated. Where two headings read alike, the source gives them in different places.

How the values were obtained:
Human PDE8B = Human PDE8B (Homo sapiens, UniProt O95263); assay: Phosphodiesterase Assay (SPA); format: biochemical
Sequence of Human PDE8B (O95263 whole entry): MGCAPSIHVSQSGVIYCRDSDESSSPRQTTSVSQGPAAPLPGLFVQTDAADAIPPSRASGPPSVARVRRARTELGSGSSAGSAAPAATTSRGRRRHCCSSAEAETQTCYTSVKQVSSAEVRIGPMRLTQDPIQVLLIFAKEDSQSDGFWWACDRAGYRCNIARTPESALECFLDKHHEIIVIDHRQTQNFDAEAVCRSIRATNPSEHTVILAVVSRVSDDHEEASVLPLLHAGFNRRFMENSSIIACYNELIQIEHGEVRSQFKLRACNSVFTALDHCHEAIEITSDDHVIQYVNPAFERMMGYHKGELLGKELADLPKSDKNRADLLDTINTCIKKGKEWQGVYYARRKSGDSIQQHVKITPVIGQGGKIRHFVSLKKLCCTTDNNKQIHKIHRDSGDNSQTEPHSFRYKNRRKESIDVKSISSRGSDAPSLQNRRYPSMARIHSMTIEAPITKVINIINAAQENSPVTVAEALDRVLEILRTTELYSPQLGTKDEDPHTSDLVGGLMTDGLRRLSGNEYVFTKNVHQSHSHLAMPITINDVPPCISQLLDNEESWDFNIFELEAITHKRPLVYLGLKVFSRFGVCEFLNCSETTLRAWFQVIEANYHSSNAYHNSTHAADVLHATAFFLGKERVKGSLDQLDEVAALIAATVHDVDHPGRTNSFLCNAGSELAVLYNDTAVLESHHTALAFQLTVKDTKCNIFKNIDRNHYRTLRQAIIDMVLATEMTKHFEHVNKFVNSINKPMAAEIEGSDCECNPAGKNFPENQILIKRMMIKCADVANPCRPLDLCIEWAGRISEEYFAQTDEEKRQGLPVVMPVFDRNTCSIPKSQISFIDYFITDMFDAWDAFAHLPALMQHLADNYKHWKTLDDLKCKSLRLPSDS

Human PDE2A1 = Human PDE2A1 (Homo sapiens, UniProt O00408); assay: Phosphodiesterase Assay (SPA); format: biochemical
Sequence of Human PDE2A1 (O00408 1-920 isoform O00408-2): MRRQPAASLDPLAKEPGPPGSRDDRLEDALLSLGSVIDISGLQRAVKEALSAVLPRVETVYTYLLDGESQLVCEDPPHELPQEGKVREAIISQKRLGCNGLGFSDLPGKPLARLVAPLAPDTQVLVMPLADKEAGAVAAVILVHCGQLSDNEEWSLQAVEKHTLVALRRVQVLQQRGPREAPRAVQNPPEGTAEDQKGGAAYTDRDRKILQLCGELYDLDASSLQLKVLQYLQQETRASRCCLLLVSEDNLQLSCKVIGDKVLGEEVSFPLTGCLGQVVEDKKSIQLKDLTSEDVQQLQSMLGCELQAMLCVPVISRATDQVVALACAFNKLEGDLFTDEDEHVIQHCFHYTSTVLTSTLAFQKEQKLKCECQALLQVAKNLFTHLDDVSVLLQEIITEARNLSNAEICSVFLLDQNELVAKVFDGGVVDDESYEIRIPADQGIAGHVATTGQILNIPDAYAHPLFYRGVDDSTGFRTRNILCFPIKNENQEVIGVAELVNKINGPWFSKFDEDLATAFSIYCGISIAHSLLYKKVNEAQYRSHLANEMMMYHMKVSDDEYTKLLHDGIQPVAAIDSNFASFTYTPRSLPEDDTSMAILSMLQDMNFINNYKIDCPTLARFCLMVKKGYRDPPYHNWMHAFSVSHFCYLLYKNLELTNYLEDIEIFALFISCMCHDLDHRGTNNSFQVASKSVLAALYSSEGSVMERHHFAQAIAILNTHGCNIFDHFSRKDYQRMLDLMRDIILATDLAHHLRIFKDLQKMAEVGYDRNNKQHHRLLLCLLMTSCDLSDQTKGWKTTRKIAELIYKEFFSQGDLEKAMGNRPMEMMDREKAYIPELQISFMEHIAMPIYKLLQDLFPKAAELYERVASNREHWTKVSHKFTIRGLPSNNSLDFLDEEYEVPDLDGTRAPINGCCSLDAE

human GPR61 N137A = target: T1, human GPR61 N137A (Homo sapiens, UniProt Q9BZJ8, N137A); assay: Functional cAMP assay (HTRF), transiently transfected CHO-K1 cells, GPR61 N137A mutant; format: cell-based; parameters: key to cAMP response (Figure 3e source data): nM cAMP per well, from standard curve; details: for IC50: Fig. 3e table
T1 construct: expressed in transfected cells; host or cells: CHO-K1, transient (Fugene6)
T1 sequence (Q9BZJ8 whole entry N137A): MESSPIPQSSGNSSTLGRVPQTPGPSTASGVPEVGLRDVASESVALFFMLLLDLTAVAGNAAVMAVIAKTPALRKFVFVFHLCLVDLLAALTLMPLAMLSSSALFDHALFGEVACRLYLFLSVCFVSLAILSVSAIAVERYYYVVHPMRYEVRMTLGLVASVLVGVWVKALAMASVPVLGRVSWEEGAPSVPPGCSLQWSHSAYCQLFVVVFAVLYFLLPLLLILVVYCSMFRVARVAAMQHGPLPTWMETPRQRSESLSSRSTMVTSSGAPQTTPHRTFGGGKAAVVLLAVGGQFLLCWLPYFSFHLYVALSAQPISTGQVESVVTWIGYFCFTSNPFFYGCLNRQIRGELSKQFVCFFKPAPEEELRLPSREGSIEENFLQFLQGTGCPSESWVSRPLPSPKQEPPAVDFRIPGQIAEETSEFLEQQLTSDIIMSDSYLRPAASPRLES
Excerpt: The human GPR61 (reference sequence NM_031936.4) cDNA was synthesized and subcloned into pcDNA5/FRT/TO (Thermo Fisher, Pittsburgh, PA). The pcDNA5/FRT/TO/ human GPR61 plasmid was then transfected into the Flp-In™-CHO Cell Line (Thermo Fisher, Pittsburgh, PA) and a doxycycline-inducible clonal cell line was selected (CHO TREx hGPR61 WT). Sequences encoding untagged and HiBit/hemagglutinin (HA)-tagged versions of the wild-type human GPR61 were synthesized and cloned into pcDNA3.1. The HiBit ([…]) and HA ([…]) tags were sequentially included after the N-terminal initiator methionine. Four single amino acid substitutions (N137A, R140A, V288A, N345A) were then introduced in the untagged and tagged human GPR61 constructs using site-specific mutagenesis. The nucleotide sequences of all receptor constructs were confirmed by automated DNA sequencing.
Parental CHO-K1 cells were maintained at 37 °C in a humidified environment (5% CO2) and grown in Dulbecco’s Modified Eagle Medium (DMEM) F-12 media (Gibco, 11320033) supplemented with 10% FBS, 1% Glutamax (Gibco, 35050061) and 100units/ml penicillin and streptomycin (Gibco, 15140122. Cells were dissociated using a cell dissociation solution (Gibco, 13151-014), counted, and resuspended in complete culture media without antibiotics. Cells were then transiently transfected using Fugene6 (Promega) in a 384-well plate format (Corning, 3570). For each well, 7500 cells were transfected with 5 ng of receptor plasmid, 20 ng of carrier DNA (Promega, PAE4881) and 0.075 μl Fugene6 in a final volume of 25 μl. Fugene6 and DNA were separately diluted in Optimem media (Gibco, 31985070) (1.25 μl final volume each). Fugene6 and DNA solutions were then combined and incubated for 15 min at room temperature. The cell containing solution (22.5 μl) was then added and transfection reactions were mixed and transferred to the assay plate. Following 24 h incubation at 37 °C, wells were rinsed once and 25 μl of HiBit assay buffer (Phenol-red free DMEM F-12 media containing 2% FBS) was added per well. Surface and total receptor expression was measured separately by adding 25 μl per well of the extracellular (Promega, PRN2421) and lytic (Promega, PRN3040) assay solutions, respectively. Plates were incubated for 10 min at room temperature on a shaker and luciferase activity was measured using an EnVision plate reader (Perkin Elmer, Chicago, IL). Expression was normalized as percent of the wild-type receptor signal. Statistical comparisons of expression levels observed with WT versus GPR61 mutants were made by one-way analysis of variance with Dunnett’s post hoc test.
A homogeneous Time-Resolved Fluorescence (HTRF) assay (Perkin Elmer, Dynamic2 kit #) was used to assess receptor basal and inverse agonist activity at human GPR61, GPR62, and GPR101. For routine inverse agonist screening frozen CHO TREx human GPR61, GPR62 and GPR101 cells were used. Cells were thawed, resuspended in complete assay media (DMEM F-12, 10% HI FBS, 100 μg/mL Normocin, 700 μg/mL Hygromycin B and 15 μg/mL Blasticidin) containing 1ug/ml doxycycline, plated in white 384 well plates (Corning, 3570) at a density of 750 cells/well (25 μl/ well) and cultured at 37 °C in an incubator overnight. For studies assessing basal and inverse agonist activity at human GPR61 mutants, CHO-K1 cells were transiently transfected using Fugene6, plated in white 384 well plates (7500 cells/well) and grown overnight at 37 °C, as described for receptor expression studies. […]

CCOc1cc(C)nc(N(CCOC)S(=O)(=O)c2ccc(NCc3c(F)cncc3F)nc2OC)n1 [Compound 1]
IC50 (Human PDE8B): 9.07 µM | IC50 (Human PDE2A1): > 200 µM | reduction of potency relative to wild-type in the cAMP assay (human GPR61 N137A; Asn137 to Ala mutation vs wild-type): about 100 fold | IC50 (human GPR61 N137A; HiBit-tagged, read-out: GPR61 cAMP IC50 (95% CI), N137A HiBit-tagged): 3.34 µM | IC50 (human GPR61 N137A; untagged, read-out: GPR61 cAMP IC50 (95% CI), N137A Untagged): 1.73 µM | cAMP response (Figure 3e source data) (human GPR61 N137A; HiBit N137A, concentration -6.5): 4.93 and 5.62 and 3.82 and 3.87 and 6.18 and 6.86 | cAMP response (Figure 3e source data) (human GPR61 N137A; HiBit N137A, concentration -7.5): 4.76 and 5.49 and 3.72 and 4.04 and 6.75 and 6.55 | cAMP response (Figure 3e source data) (human GPR61 N137A; HiBit N137A, concentration -8): 6.63 and 6.17 and 3.76 and 4.15 and 6.97 and 7.08 | cAMP response (Figure 3e source data) (human GPR61 N137A; HiBit N137A, concentration -9): 2.87 and 4.76 and 3.00 and 3.25 and 3.54 | cAMP response (Figure 3e source data) (human GPR61 N137A; Untagged N137A, concentration -6): 4.52 and 4.56 and 3.59 and 3.47 and 5.45 and 5.98
